# According to patent publication US8080540B2, “Therapeutically active triazoles and their use” (Abbott Products GmbH, priority 2006, dated 2011):
# Molecular target: T1, recombinant human 17β-HSD1 (Homo sapiens, UniProt P14061)
# T1 construct: made in house; host or cells: Sf9 insect cells (baculovirus, Bac to Bac Expression System); microsomal fraction used
# T1 sequence (P14061 1-328): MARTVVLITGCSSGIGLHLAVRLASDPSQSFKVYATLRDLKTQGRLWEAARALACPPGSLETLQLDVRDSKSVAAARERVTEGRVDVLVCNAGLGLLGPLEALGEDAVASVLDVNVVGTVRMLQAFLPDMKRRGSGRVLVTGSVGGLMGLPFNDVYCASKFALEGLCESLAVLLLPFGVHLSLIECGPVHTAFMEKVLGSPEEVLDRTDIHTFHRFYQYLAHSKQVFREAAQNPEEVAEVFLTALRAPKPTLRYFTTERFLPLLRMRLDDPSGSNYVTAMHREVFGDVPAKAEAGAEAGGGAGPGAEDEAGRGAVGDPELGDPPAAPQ
# Assay: Inhibition of recombinant human 17β-HSD1 (HPLC assay, conversion of 3H-estrone to estradiol)
# Assay type: biochemical
# Conditions: 0.5 h, 30 nM 3H-estrone, 1 mM NADPH, 30 min RT, read-out: inhibition of rec. 17 β-HSD1; for inhibition at 0.1 µM: 100 nM inhibitor; for inhibition at 1 µM: 1 μM inhibitor
# Protocol: 17β-HSD1 purification: Recombinant baculovirus was generated by the “Bac to Bac Expression System” (Invitrogen). Recombinant bacmid was transfected to Sf9 insect cells using “Cellfectin Reagent” (Invitrogen). 60 h later cells were harvested; the microsomal fraction was isolated as described by Puranen et al. (1994). Aliquots were stored frozen until determination of enzymatic activity. Assay—Inhibition of recombinant human 17β-HSD1: Recombinant protein (0.1 μg/ml) was incubated in 20 mM KH2PO4 pH 7.4 with 30 nM 3H-estrone and 1 mM NADPH for 30 min at RT, in the presence of potential inhibitors at concentrations of 1 μM or 0.1 μM. Inhibitor stock solutions were prepared in DMSO. Final concentration of DMSO was adjusted to 1% in all samples. The enzyme reaction was stopped by addition of 10% trichloroacetic acid (final concentration). Samples were centrifuged in a microtiter plate at 4000 rpm for 10 min. Supernatants were applied to reverse phase HPLC on a Waters Symmetry C18 column, equipped with a Waters Sentry Guard column. Isocratic HPLC runs were performed at RT at a flow rate of 1 ml/min of acetonitrile:water 48:52 as running solvent. Radioactivity was monitored in the eluate by a Packard Flow Scintillation Analyzer. Total radioactivity for estrone and estradiol were determined in each sample and percent conversion of estrone to estradiol was calculated according to the following formula: [formula] • Percent inhibition was calculated as follows: % inhibition=100−% conversion The values “% inhibition” were determined for exemplified compounds, and the results are summarized in table 4 (for 17β-HSD1).
Structure (SMILES),inhibition at 0.1 µM [%],inhibition at 1 µM [%]
CC(C)Cc1cn(CCCCCC[C@@H]2CC(=O)[C@@]3(C)CC[C@@H]4c5ccc(O)cc5CC[C@H]4[C@H]23)nn1 [Compound 58],20,70
COc1ccc2c(c1)CC[C@H]1[C@@H]3[C@H](CCCn4cc(-c5ccsc5)nn4)CC(=O)[C@@]3(C)CC[C@H]21 [Compound 59],18,69
COc1ccc2c(c1)CC[C@H]1[C@@H]3[C@H](CCCn4cc(C5CC5)nn4)CC(=O)[C@@]3(C)CC[C@H]21 [Compound 41],23,77
CC(C)CCc1cn(CCCCCC[C@@H]2CC(=O)[C@@]3(C)CC[C@@H]4c5ccc(O)cc5CC[C@H]4[C@H]23)nn1 [Compound 69],30,64
COc1ccc2c(c1)CC[C@H]1[C@@H]3[C@H](CCCCn4cc(-c5ccc(C)cc5)nn4)CC(=O)[C@@]3(C)CC[C@H]21 [Compound 112],12,43
COc1ccc2c(c1)CC[C@H]1[C@@H]3[C@H](CCCCn4cc(C5CC5)nn4)CC(=O)[C@@]3(C)CC[C@H]21 [Compound 111],4,43
CC(C)CCc1cn(CCCC[C@@H]2CC(=O)[C@@]3(C)CC[C@@H]4c5ccc(O)cc5CC[C@H]4[C@H]23)nn1 [Compound 48],21,73
COc1ccc2c(c1)CC[C@H]1[C@@H]3[C@H](CCCn4cc(-c5ccc(CO)cc5)nn4)CC(=O)[C@@]3(C)CC[C@H]21 [Compound 60],19,69
"Cc1ccc(-c2cn(CCC[C@H]3CC(=O)[C@@]4(C)CC[C@@H]5c6ccc(O)cc6CC[C@H]5[C@H]34)nn2)cc1 [Compound 25, 3-Hydroxy-15α-[3-(4-p-tolyl-[1,2,3]triazol-1-yl)-propyl]-estra-1,3,5(10)-trien-17-one]",49,85
"C[C@]12CC[C@@H]3c4ccc(O)cc4CC[C@H]3[C@@H]1[C@H](CCn1cc(-c3cc(F)cc(F)c3)nn1)CC2=O [Compound 5, 3-Hydroxy-15β-{2-[4-(3,5-Difluoro-phenyl)-[1,2,3]triazol-1-yl]-ethyl}-estra-1,3,5(10)-trien-17-one]",87,95
COc1ccc2c(c1)CC[C@H]1[C@@H]3[C@H](CCCCn4cc(CO)nn4)CC(=O)[C@@]3(C)CC[C@H]21 [Compound 122],5,38
"C[C@]12CC[C@@H]3c4ccc(O)cc4CC[C@H]3[C@@H]1[C@@H](CCCn1cc(CCc3ccccc3)nn1)CC2=O [Compound 16, 3-Hydroxy-15α-[3-(4-phenethyl-[1,2,3]triazol-1-yl)-propyl]-estra-1,3,5(10)-trien-17-one]",38,89
"COc1ccc(-c2cn(CCC[C@H]3CC(=O)[C@@]4(C)CC[C@@H]5c6ccc(O)cc6CC[C@H]5[C@H]34)nn2)cc1 [Compound 20, 3-Hydroxy-15α-{3-[4-(4-methoxy-phenyl)-[1,2,3]triazol-1-yl]-propyl}-estra-1,3,5(10)-trien-17-one]",51,87
C[C@]12CC[C@@H]3c4ccc(O)cc4CC[C@H]3[C@@H]1[C@H](CCCCn1cc(CCc3ccccc3)nn1)CC2=O [Compound 33],20,80
C[C@]12CC[C@@H]3c4ccc(O)cc4CC[C@H]3[C@@H]1[C@H](CCCCCCn1cc(-c3cccc(O)c3)nn1)CC2=O [Compound 100],7,48
COc1ccc2c(c1)CC[C@H]1[C@@H]3[C@H](CCCn4cc(-c5ccccc5[N+](=O)[O-])nn4)CC(=O)[C@@]3(C)CC[C@H]21 [Compound 37],25,80
